Test results published in article PMC2652713, “Molecular Blocking of CD23 Supports Its Role in the Pathogenesis of Arthritis” (PLoS ONE, 2009).

What was measured:
[1] = test system: adjuvant-induced arthritis in rats; experiment: Adjuvant-induced arthritis (AIA) clinical score in rats; type: in vivo, rat, Female Lewis
Method: Figure 6 Inhibition of in vitro and in vivo inflammatory responses in rats by p30A peptide. (A) Rat peritoneal macrophages were activated via CD23 antigens with/without p30A, L-NIL or pCtl. Cell supernatants were collected 48 h later and nitrite levels were quantified. Values are mean±s.d. of cells from 3 different rats. (B) Cumulative clinical score/rat obtained following 50 days post-immunization in all groups. AIA rats were treated either after or before (d0) the onset of symptoms. Treatment consisted of p30A, hydrocortisone (HC, 30 mg/rat)) or pCtl (100 mg/rat). Shown are means of cumulative score/rat±s.d. from 5 (HC) or 8 rats (other conditions). (C) Evolution of arthritis severity scores of adjuvant-induced arthritis (AIA) in rats treated with intracutaneous p30A or pCtl (100 mg/rat) or hydrocortisone (after the onset of clinical signs as illustrated by arrows (means from 8 rats, s.e.m.<20%). (D) Histopathologic analysis confirm p30A ability to decrease all components of AIA lesions: pannus formation and inflammation of the synovium (P), deformity of joint and bones (asterix), bone remodeling and destruction (arrowhead), bone neoformation (arrows) and cartilage destruction.
All animal procedures were performed in strict accordance with the guidelines issued by the European Economic Community “86/609”. Female Lewis rats (Janvier, Le Genest St Isle, France) were housed under standard laboratory conditions with free access to food and water. The temperature was kept at 22±2°C and a 12 hour light/dark schedule was maintained.
(§1) Adjuvant arthritis was induced in six week-old animals by subcutaneous injection at the base of the tail of 300 µl containing 1.8 mg of inactivated Mycobacterium butyricum (Difco Laboratories, Detroit, MI) diluted in emulsion of 8 ml Vaseline, 1 ml polysorbate 80, and 1 ml PBS (Phosphate Buffer Saline, Eurobio). Rats were boosted one week later following the same procedure. Observation was conducted for up to 50 days following immunization for clinical signs of arthritis. Rats were divided in different groups of 8 rats. Groups were treated with five injections (every 2 days) of either p30A (10, 50 or 100 mg in a PBS solution), pCtl, hydrocortisone (Sigma Aldrich) or PBS solution. Injections were initiated two days after the appearance of first arthritic symptoms (therapeutic) or on the first day of immunization (preventive). Evaluation of AIA severity was performed by two independent observers who where not aware of the study protocol. The severity of AIA in each paw was quantified daily using an ordinal clinical score measurement from 0 to 4 as follows: no signs of inflammation ( = 0); swelling alone (>2 fold paw diameter) ( = 1) or swelling/immobility ( = 2) of one paw; swelling ( = 3) or swelling/immobility ( = 4) of two paws. Weight evolution of rats was measured daily. Rats were sacrificed 50 days after AIA induction. Peritoneal macrophages were collected and incubated in culture medium alone for 48 h. Quantification of TNF-α and IL-1β in rat cell supernatants was performed using appropriate ELISA kits and according to manufacturer's recommendations (Biosource, Montrouge, France).

rat CD23+ macrophages = experiment: IgE-mediated activation of rat CD23+ macrophages; type: cell-based
Method: Peptides were added one hour prior to cell activation.

human CD23 [2] = experiment: Flow cytometry, inhibition of anti-CD23-FITC McAb binding to human macrophages; conditions: human PBL-derived CD23+ macrophages, p30A 10 µg/ml pre-incubation, anti-CD23-FITC 20 µg/ml
Method: (§2) Figure 1 Specific blockade of CD23 reactivity by p30A. Flow cytometry analysis showing the inhibition of (A) anti-CD23-FITC (20 µg/ml) or (B) IgE (10 µg/ml)/anti-IgE-FITC (1 µg/ml) binding to CD23^+ human PBL-derived macrophages (red lines) or following their pre-incubation with p30A peptides (10 µg/ml) (blue lines). (C) CD23 western blot was performed on total protein extract from à CD23^+ B-cell line. The detection with CD23-McAb followed the pre-incubation of the blot with or without p30A (10 µg/ml). Similar protein quantity (50 µg) was used for each western blot condition.

[3] = Weight and intestinal bleeding in AIA rats; type: in vivo, rat, Female Lewis; conditions: 50 days, data not shown
Method: as §1, with “Evaluation of AIA severity was performed by two independent observers who where not aware of the study protocol.” left out, “Rats were sacrificed 50 days after AIA induction. Peritoneal macrophages were collected and incubated in culture medium alone for 48 h.” left out

human CD23 [4] = experiment: Flow cytometry, inhibition of IgE/anti-IgE-FITC binding to human CD23+ macrophages; conditions: p30A 10 µg/ml pre-incubation, IgE 10 µg/ml, anti-IgE-FITC 1 µg/ml
Method: as §2

soluble and surface CD23 = experiment: Interaction of p30A with soluble and surface CD23 (inferred); type: binding, human
Method: as §2
As control (pCtl), we have used synthetic heptapeptide with unrelated sequence (SFNYNYA).
Total cellular proteins were isolated from CD23^+, ADAM B-cell line in cell lysis buffer (10 mM Tris pH 8.0, 150 mM NaCl, 5 mM EDTA, 1% Triton X-100, 0.05% SDS, 10 mM Sodium Fluoride, 1 mM Sodium Orthovanadate, 5 µM Molibdic Acid) and a mixture of protease inhibitors (all from Sigma Aldrich, Saint Quentin Fallavier, France). Protein concentration was determined using the Bradford assay (Bio Rad, Hemel Hempstead, UK). Protein samples (50 µg total protein) were subjected to SDS-PAGE using a 12% resolving gel. […] Immunoreactive bands (CD23 and Bcl2) were detected using the FluorChem 8800 (Alpha Innotech, San Leandro, USA) and semi-quantified by densitometry using AlphaEase FC (Alpha Innotech).

With FHENWPS [p30A] the “cumulative clinical score vs non-treated rats” value ([1]; AIA rats, 50 days post-immunization, five intracutaneous doses every two days, 8 rats, p<0,0001) was “significantly improved the clinical course of AIA rats”, the “decrease of arthritic scores compared with hydrocortisone” value ([1]; AIA rats, hydrocortisone 30 mg/rat) was “more efficient than hydrocortisone in decreasing arthritic scores” and the “arthritic signs, dose-dependence” value ([1]; AIA rats, p30A 10, 50 or 100 mg, five injections every 2 days) was “decreased arthritic signs in rats in a dose-dependent manner”. For the same substance, the “effectiveness after disease onset or for prevention” value ([1]; AIA rats, therapeutic or p30A-d0, p<0.0002) was “effective either after disease onset or for the prevention”, the “prevention of severe clinical signs” value ([1]; p30A administered prior to disease induction) was “prevented the development of severe clinical signs in rats” and the “clinical scores and bone destruction” value ([1]; rat model of arthritis) was “ameliorates clinical scores and prevent bone destruction in a dose dependent manner”. The “duration of dose-dependent effect” value ([1]; rat model of chronic arthritis, indirectly supports stability of p30A in vivo) was “> one month”, the “IgE-mediated activation of rat CD23+ macrophages” value (rat CD23+ macrophages) was “decreased IgE-mediated activation of both human and rat CD23^+ macrophages” and the “inhibition of FITC-conjugated anti-CD23 McAb binding” value (human CD23 [2]) was “inhibits the binding of FITC-conjugated anti-CD23 McAb”. For the same substance, the side agonistic effect (CD23) was “absence of side agonistic effect”, the intestinal bleeding [3] was “neither intestinal bleeding was observed” and the weight loss [3] was “no weight loss”. For the same substance, the “block of IgE/anti-IgE-FITC binding” value (human CD23 [4]) was “block, on the one hand, the binding of IgE/anti-IgE-FITC to human CD23^+ macrophages”, the “binding to human CD23” value (soluble and surface CD23) was “specifically bound human and rat CD23” and the “affinity of interaction with soluble and surface CD23 relative to McAb or IgE-anti-IgE” value (soluble and surface CD23; authors' inference from Figure 1A-C, Kd not given) was “interacts with both soluble and surface CD23 forms with a higher affinity than specific McAb or IgE-anti-IgE immune complexes”.
